The subject of series [1] is deoxymyoglobin (deoxy-Mb). Briefly: Detection of CO release: conversion of deoxymyoglobin to carbonmonoxy myoglobin (MbCO), spectrophotometric. The series is classed as physicochemical. On the procedure: The release of CO from CORM-3 or dCOMR-3 was assessed spectrophotometrically by measuring the conversion of deoxymyoglobin (deoxy-Mb) to carbonmonoxy myoglobin (MbCO) as previously described. The amount of MbCO formed was quantified by measuring the absorbance at 540 nm (extinction coefficient=[…]). Myoglobin solutions (66 μmol/L final concentration) were prepared fresh by dissolving the protein in 0.04 M phosphate buffer (pH 6.8). Sodium dithionite (0.1%) was added to convert myoglobin to deoxy-Mb prior to each reading.
When CORM-3 was prepared in distilled water and then added to the phosphate buffer solution containing Mb, a spectrum characteristic of MbCO was rapidly detected (FIG. 1B).

Series [2] has as its system isolated hearts from male Lewis rats. Briefly: Ischaemia-reperfusion model in isolated Langendorff-perfused hearts. Also on record: species or system rat. On the procedure:
Isolated hearts from male Lewis rats (300-350 g) were perfused according to the Langendorff technique as previously described by our group. Briefly, hearts were rapidly excised and perfused at constant flow (11 ml/min) with Krebs-Henseleit buffer (in mM: 119 NaCl, 4.7 KCl, 2.5 CaCl2, 1.66 MgSO4, 24.9 NaHCO3, 1.18 KH2PO4, 5.55 glucose, 2.00 sodium pyruvate, 0.5 EGTA) bubbled with 95% O2 and 5% CO2 at 37° C. (pH 7.4). Coronary perfusion pressure (CPP) was continuously measured by a pressure transducer (Grass Instruments, Astromed, RI, USA) connected to the aortic cannula. A latex balloon filled with saline was inserted into the left ventricle through the atrium and connected by a catheter to a second pressure transducer. The balloon was inflated to provide an initial end-diastolic pressure (EDP) of 10 mmHg. Both transducers were connected to a computer and data were acquired with BioPac™ instrumentation and analyzed with the accompanying AcqKnowledge™ software (BIOPAC System Inc.). Left ventricular developed pressure (LVDP), heart rate (HR), maximal contraction (+dP/dt) and relaxation (−dP/dt) rates, CPP and EDP were continuously recorded throughout the period of perfusion.
Isolated hearts were allowed to equilibrate at constant flow for 30 min and then made globally ischaemic by interrupting the buffer perfusion. Ischaemic hearts were kept at 37° C. in the water-jacketed chamber for 30 min and then reperfused for 60 min. All the hemodynamic parameters were continuously monitored throughout the experimental protocol as reported above. Krebs buffer was collected for 10 min from the pulmonary artery prior to the ischaemic event and in the last 10 min of reperfusion for creatine kinase (CK) analysis. At the end of reperfusion, hearts were stained to assess tissue viability using tetrazolium red. In additional experiments, hearts made ischaemic were infused for the first 10 min of reperfusion with CORM-3 or dCORM-3 (10 μM final concentration) via a syringe pump connected to the side arm of the aortic cannula. To assess a possible role of mitochondrial ATP-dependent potassium channels (KATP) in cardioprotection mediated by CORM-3, control hearts or hearts receiving CORM-3 were pre-treated for 10 min prior to ischaemia with […] (5-HD, 50 μM final concentration), a specific blocker of mitochondrial KATP.
Hearts from each experimental group (n=5) were stained for tissue viability at the end of the reperfusion period. Hearts were perfused through a side arm of the aortic cannula for 20 min with tetrazolium red (3% w/v) in Krebs Henseleit buffer at 37° C. The tetrazolium salt stains the viable myocardium brick red, whereas the infarcted tissue remains unstained and appears white. After staining, hearts were removed and stored in 2% formalin in the dark prior to analysis. Hearts were carefully cut into 2-mm thick sections, scanned into a computer using an AGFA Arcus® II scanner and the total ischaemic size was determined by volumetric analysis software (Scion Image®, Scion Corporation, MA, USA). Cardiac muscle damage was assessed by measuring the release of creatine kinase (CK) into the perfusate using a commercially available spectrophotometric assay kit (DG147-A) from Sigma Diagnostic (Poole, Dorset).

The conditions of series [3]: dissolved in DMSO; cited from earlier work.
The subject of series [4] is deoxymyoglobin (deoxy-Mb). The settings on record: cited from earlier work.
Series [5] has as its system pre-contracted aortic rings. Particulars: cited from earlier work.
Setting [6] is: 10 μM infused for first 10 min of reperfusion, 30 min ischaemia, 60 min reperfusion.
The mark [7] stands for this setting: at the end of reperfusion, 10 μM infused for first 10 min of reperfusion.
Where [8] appears, read: before ischaemia, hearts later reperfused with CORM-3.

For `NCC(=O)O.[CH+]=O.[CH+]=O.[CH+]=O.[Cl][Ru]` [CORM-3, tricarbonylchloro-(glycinato)ruthenium(II)], the “CO liberated per mole of compound” value in series [1] (CORM-3 prepared in distilled water, added to phosphate buffer containing Mb) was 1 mol. Besides, in series [1] (addition of 40 μM CORM-3 prepared in distilled water, myoglobin 66 μmol/L, 0.04 M phosphate buffer pH 6.8), the “formation of MbCO” value turned out to be 36.4 ± 0.9 µM. Further, in series [1] (dissolved in water, left 24 h at room temperature), the “ability to liberate CO (conversion of Mb to MbCO) after standing in water” value is given as “retained its full ability to liberate CO”. For the same molecule, the “stability / ability to release CO in Krebs-Henseleit buffer” value in series [1] (prepared in Krebs-Henseleit buffer, over time) is “gradually decomposed over time and lost its ability to release CO”. Further, in series [2] (setting [6]), the “maximal rate of contraction (+dP/dt), after ischaemia-reperfusion” value turned out to be 3726±542 mmHg/s and the “maximal rate of relaxation (−dP/dt), after ischaemia-reperfusion” value is 2207±258 mmHg/s. Also, the “increase in left ventricular-developed pressure (LVDP) compared to baseline” value in series [2] (after 60 min reperfusion, 10 μM infused for first 10 min of reperfusion, 30 min global ischaemia) is given as 44%. For the same molecule, in series [2] (setting [7]), the “increase in coronary perfusion pressure (CPP)” value was found to be 13±2.2 mmHg and the “increase in end diastolic pressure (EDP)” value came to 3±1.8 mmHg. Moreover, in series [2] (setting [8]), the “maximal rate of contraction (+dP/dt), baseline” value was found to be 2099±99 mmHg/s and the “maximal rate of relaxation (−dP/dt), baseline” value is 1432±149 mmHg/s. Further, the “creatine kinase (CK) activity in buffer, before ischaemia” value in series [2] (buffer collected 10 min prior to ischaemia, hearts later reperfused with CORM-3) turned out to be 6.5±2.3 U/L. In addition, the “infarct size (tetrazolium red staining)” value in series [2] (end of reperfusion, 10 μM infused for first 10 min of reperfusion) is reported as 2.3±0.6%. For the same molecule, in series [2] (hearts pre-treated 10 min prior to ischaemia with 5-HD 50 μM, CORM-3 10 μM at reperfusion), the “protective effects on myocardial contractility (LVDP, +dP/dt, −dP/dt) and on EDP and CPP increases, with 5-HD pre-treatment” value is given as “totally abolished”. For the same molecule, the “creatine kinase (CK) activity in buffer, after reperfusion” value in series [2] (last 10 min of reperfusion, 10 μM infused for first 10 min of reperfusion) was determined as 19.9±5.3 U/L.

As to `[C-]#[O+].[C-]#[O+].[C-]#[O+].[C-]#[O+].[C-]#[O+].[C-]#[O+].[Cl][Ru][Cl].[Cl][Ru][Cl]` [[Ru(CO)3Cl2]2, Tricarbonyldichloro ruthenium(II) dimer], the “CO liberation on dissolution” value in series [3] is “CO is liberated into solution”.

In the case of [Fe(SPh)2(2,2′-bipyridine)(CO)2], the “release of CO to myoglobin in solution” value in series [4] was “not to release CO to myoglobin in solution”. Moreover, the “dilatation of pre-contracted aortic rings” value in series [5] is on record as “capable of promoting dilatation of pre-contracted aortic rings”.

The values are drawn from US7989650B2, “Therapeutic delivery of carbon monoxide to extracorporeal and isolated organs” (hemoCORM Limited, priority 2002, dated 2011).
